Source: patent publication US20250302909A1, “METHODS FOR THE TREATMENT OF AGE-RELATED MACULAR DEGENERATION” (Stealth BioTherapeutics Inc., priority 2024, published 2025)

Assays:
[1] = system: patients with at least one eye with dry AMD and GA; assay: Phase 2 trial (NCT03891875): low-luminance best-corrected visual acuity (LL BCVA); type: in vivo, human; conditions: week 48
Procedure: (§1) Study design. […] (Allingham 2022; Mettu 2022).
Patients—Key inclusion criteria. The original protocol specified that adults ≥55 years of age with one eye with dry AMD and GA were eligible for study entry. However, a subsequent amendment to the protocol limited inclusion to patients with noncentral GA. Noncentral GA and area was determined primarily by fundus autofluorescence (FAF) and all noncentral GA lesions were required to be ≥150 μm from foveal center with preserved outer retinal structural details, as confirmed by the central reading center (BIRC, Boston MA). Noncentral GA was required to be ≥0.05 mm^2 and ≤10.16 mm^2 in size, and reside completely within the FAF 30- or 35-degree image. […] The fellow eye was allowed to have AMD with or without GA, MNV, central GA, or no pathology.
(§2) Study objectives and endpoints. The primary efficacy endpoints were changes from baseline in LL BCVA and in square root converted GA area as measured by OCT. Secondary efficacy endpoints included changes in ellipsoid zone integrity, categorical changes from baseline in LL-BCVA, changes from baseline in LL reading acuity (LLRA), BCVA, and GA area as measured by FAF. Additional predefined endpoints included change in center 1-mm and 2-mm mean EZ-RPE thickness, National Eye Institute Visual Function Questionnaire (VFQ-39) score, RA at standard light, visual function by the Low-Luminance Questionnaire (LLQ). For efficacy endpoints, the unit of analysis was study eye; in cases where both eyes were eligible for analysis, the study eye was the eye with the worse LL BCVA as determined at baseline (right eye was the study eye for equal LL BCVA). Ellipsoid zone integrity was measured as previously described on OCT utilizing a machine learning enhanced multi-layer segmentation platform that provided panmacular assessment of the EZ and RPE location (Sirici, et al., Ophthamol Surg Lasers Imaging Retina, 2022; Itoh, et al, Br J Ophthamol, 2016).
Statistical analysis. Safety and efficacy variables were summarized descriptively. […] Patients were analyzed according to the actual treatment received. […]

[2] = system: patients with at least one eye with dry AMD and GA; assay: Phase 2 trial: ellipsoid zone integrity (tEZa, pEZa) and GA on OCT; type: in vivo, human
Text: as §1, §2
Statistical analysis. Safety and efficacy variables were summarized descriptively. […] Patients were analyzed according to the actual treatment received.
For continuous data, a mixed model for repeated measures was used for each eye separately (study eye), with fixed effects for treatment arm, study visit, the treatment arm-by-visit interaction, baseline as a covariate, a baseline-by-visit interaction, a random effect for subject, using an unstructured covariance structure. The primary time point for analysis was week 48 (end of treatment visit) and the mITT population was the primary analysis population using observed data. A family-wise alpha level of 0.1 was maintained for the primary endpoint family, using Hochberg's procedure at the primary time point of 48 weeks. […] Otherwise, the endpoint with the smaller p-value of the two was considered statistically significant, if statistically significant at the 0.05 (two-sided) level of significance.

[3] = system: patients with at least one eye with dry AMD and GA
Procedure: Study design. In this Phase 2, randomized, placebo-controlled, double-masked, multicenter, safety and efficacy trial (ClinicalTrials.gov identifier NCT03891875), patients with at least one eye with dry AMD and GA were included. Visit 1 (screening visit) was performed no more than 14 days before the baseline visit (visit 2, day 1) (FIG. 1). […] (Allingham 2022; Mettu 2022). Patients were treated for 48 weeks, with assessments at day 1 and weeks 4, 8, 12, 24, 36, and 48 (visits 2 to 8) plus a final safety follow-up visit 4 weeks after the last day of study treatment (week 52; visit 9). Patient diaries and vial counts were used and reviewed to verify compliance.
Safety/tolerability evaluations included assessment of the incidence and severity of adverse events/adverse device effects, incidence of conversion to MNV, changes from baseline in vital sign measurements, electrocardiograms, clinical evaluations, clinical laboratory evaluations, slit lamp examination, and dilated fundus examination.
Statistical analysis. Safety and efficacy variables were summarized descriptively. The safety population included all patients receiving ≥1 dose of investigational product. […] Patients were analyzed according to the actual treatment received. A sample size of 180 patients provides ≥80% power to detect a 5-letter (1-line) change from baseline mean difference in LL BCVA between drug and placebo, assuming a standard deviation of 11 letters, at a two-sided alpha-level of 0.10, and proves approximately 80% power to detect a 30% difference in the change from baseline in square root transformed total GA area by OCT between drug and placebo, assuming a standard deviation of 0.2 mm/year, and an average change of 0.33 mm/year, at a two-sided alpha-level of 0.1.

[4] = system: patients with at least one eye with dry AMD and GA; assay: Example 2: macular area of photoreceptor loss (tEZa) over time, linear mixed effects model; type: in vivo, human
Procedure: Data for this example was collected as part of the clinical study described above in Example 1. […] The primary analysis of rate of change in the macular area of photoreceptor loss over time was conducted using a linear mixed effects model assuming time as continuous and linear. […] Correlation between the repeated measurements of the same subject were accounted for by allowing an unstructured covariance matrix for the residuals. The outcome was the change in macular area of photoreceptor loss from baseline to each time point (time points being t=0, t=12 weeks, t=24 weeks, t=36 weeks and t=48 weeks) during the treatment period through week 48.

[5] = general statement on formulation
[6] = Table 1, 117 randomized to elamipretide
[7] = clinical study, rate of growth of photoreceptor loss

Q: Which results are given for `Cc1cc(O)cc(C)c1C[C@H](NC(=O)[C@H](N)CCCNC(=N)N)C(=O)N[C@@H](CCCCN)C(=O)N[C@@H](Cc1ccccc1)C(N)=O` (stereo in doubt) [elamipretide, H-D-Arg-2′,6′Dmt-Lys-Phe-NH2]?
A: least-squares (LS) mean changes from baseline in LL BCVA ([1]; primary endpoint, 40 mg subcutaneous once daily, mITT, P=0.49 vs placebo): −3.0 letters; patients experiencing a ≥2-line gain (≥10 letter) in LL BCVA ([1]; 40 mg subcutaneous once daily, P=0.0404 vs placebo): 14.6%; percentage of patients experiencing a >1-line gain ([1]; LL BCVA, vs placebo): higher compared to placebo; reduction in progression of pEZa relative to placebo ([2]; LS mean change baseline to week 48): 47%; reduction in progression of tEZa relative to placebo ([2]; LS mean change baseline to week 48, macular percentage of tEZa): 43%; progression of GA area relative to the baseline boundary of total EZ attenuation ([2]; during the trial, elamipretide treated arm): GA area did not progress to the baseline boundary of total EZ attenuation; growth of partial EZ attenuation area during the trial ([2]; elamipretide arm, placebo arm 35%): 14%; growth of total EZ attenuation area (mm^2) during the trial ([2]; elamipretide arm, placebo arm 52%): 24%; rate of progression of the EZ-GA gap ([2]; post-hoc analysis): slower rate of progression; LS mean change from baseline to week 48 for macular percentage of tEZa (EZ-RPE thickness of 0 μm) ([2]; week 48, 40 mg subcutaneous once daily, P=0.0034 vs placebo): 3.69%; LS mean change from baseline to week 48 for pEZa (EZ-RPE thickness≤20 μm) ([2]; week 48, 40 mg subcutaneous once daily, P=0.0040 vs placebo): 4.10%; Early discontinuation: Adverse event [3, 6]: 10 (8.5) n (%); Early discontinuation: Withdrawal by subject [3, 6]: 20 (17.1) n (%); Subjects leaving study early [3, 6]: 34 (29.1) n (%); patients who discontinued the study early (percent) ([3]; of n=117 randomized): 29%; mean rate of macular photoreceptor loss compared with the untreated group ([4]; FIG. 3, MMRM, weeks 12, 24, 36 and 48): reduced mean rate of macular photoreceptor loss; decrease of the growth of photoreceptor loss ([4]; FIG. 3, change in tEZa from baseline, weeks 12 to 48, 40 mg subcutaneous once daily vs untreated): about 50%; clinical benefit in subjects who commenced therapy before developing measurable geographic atrophy (GA) [4, 7]: experienced clinical benefit; clinical benefit in subjects with non-central GA [4, 7]: experienced clinical benefit; water solubility [5]: highly water soluble
